Like-named read-outs stand apart in the source and are kept apart here.
Tests used:
[1] = system: rats; test: Portal vein flow during 20-minute jejunal NaHS infusion in rats fed MgO diet; assay type: in vivo, rat
From the text: FIG. 7. Portal venous flow recordings over 20-minute infusion of NaHS in two groups: Standard-diet-fed rats and Magnesium Oxide (MgO)-fed rats. Vehicle group shown as control; standard diet fed rats followed by water infusion. All measurements shown as percent change from baseline to accommodate for compensate for variation in baseline data; data shown as percent change±SEM. Baseline flow measurements recorded and average (shown as time 0) for each group. […] No difference is noted between MgO diet group and vehicle.
Rats were divided into three groups: Magnsium Oxide (MgO) diet, 500 mg MgO per 100 g chow, with NaHS infusion into small intestine (jejunim); standard diet with NaHS infusion into jejunum; and standard diet with control (vehicle) infusion into jejunim. Diets were administered for three days total. At the end of diet treatment, rats underwent surgery to measure porta vein flow before and after infusion of small intestine (jejunum) sodium hydrosulfide (NaHS), a hydrogen sulfide donor. Portal vein blood flow was recorded at baseline for 10 minutes and throughout 20-minute infusion periods. Data reported as percent change from baseline; infusion started at minute 1 of data shown. Blood flow data are reported as mean percent baseline change+/−SEM and were compared by 2-way RM-ANOVA.

[2] = system: Desulfovibrio vulgaris (DSV); conditions: 14 hours
From the text: FIG. 8. Effect of molybdate on growth of Desulfovibrio vulgaris (DSV) on a culture plate.

[3] = system: Desulfovibrio vulgaris (DSV); test: Production of hydrogen sulfide gas by DSV in the culture system; assay type: cell-based; conditions: molybdate at 10 μM, 50 μM, and 1 mM; dose dependent
From the text: FIG. 9. Effect of molybdate on the production of hydrogen sulfide gas measured in parts per billion (ppb) in the culture system.

SMILES | Portal venous flow (percent change from baseline), MgO diet group versus vehicle ([1]; 500 mg MgO per 100 g chow for three days, 20-minute NaHS infusion, vehicle = standard diet, water infusion) | Portal vein blood flow, MgO diet group versus other two groups ([1]; at minutes 20 of infusion) | Growth of DSV ([2]; molybdate at 10 μM, 50 μM, and 1 mM, dose-dependent) | Growth of DSV ([2]; molybdate at 1 mM) | Generation of H2S gas by DSV (ppb) [3]
[O]=[Mg] [MgO, Magnesium Oxide] | No difference | Statistical significant difference |  |  | 
[O]=[Mo](=[O])([O-])[O-] [molybdate] |  |  | suppressed the growth | completely suppressing the growth | suppressed the generation of H2S gas

Reference: patent publication US20210060058A1, “COMPOSITIONS AND METHODS FOR TREATING HYDROGEN SULFIDE-MEDIATED HYPERDYNAMIC CIRCULATION” (priority 2019, published 2021)
